Data reported in publication PMC11818082, “2-{N-[ω-(1-Benzylpiperidin-4-yl)alkyl]amino}-6-[(prop-2-yn-1-yl)amino]pyridine-3,5-dicarbonitriles Showing High Affinity for σ1/2 Receptors” (International Journal of Molecular Sciences, 2025).
Several values for one entry are separate records, joined by “and”; a condition that tells them apart may be missing. Identical values can stand only once. Like-named read-outs stand apart in the source and are kept apart here.

Experiments:
EeAChE = conditions: cited from earlier work
eqBuChE = conditions: cited from earlier work; for IC50: read-out: IC50 BuChE
human MAO B = system: human MAO B; design: method as in earlier work; conditions: cited from earlier work
rat σ2R = biological target: T1, rat σ2R (Rattus norvegicus, UniProt Q5U3Y7); experiment: σ2R competitive radioligand binding assay (rat liver membranes)
T1 construct: The thawed membrane preparation of rat liver (about 100 µg of protein) was incubated; from tissue; host or cells: rat liver membranes
T1 sequence (Q5U3Y7 1-176): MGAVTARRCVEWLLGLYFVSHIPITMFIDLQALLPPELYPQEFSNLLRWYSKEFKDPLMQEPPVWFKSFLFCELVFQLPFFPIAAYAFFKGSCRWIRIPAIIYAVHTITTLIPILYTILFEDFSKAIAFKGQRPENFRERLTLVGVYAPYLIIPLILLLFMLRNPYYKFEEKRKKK
Experimental: Two rat livers were cut into small pieces and homogenized using a potter [Elvehjem Potter (B. Braun Biotech International, Melsungen, Germany); 500–800 rpm, 10 up-and-down strokes] in 6 volumes of cold 0.32 M sucrose. The suspension was centrifuged at 1200× g for 10 min at 4 °C. The supernatant was separated and centrifuged at 31,000× g for 20 min at 4 °C. The pellet was resuspended in 5–6 volumes of buffer (50 mM TRIS, pH 8.0) and incubated at rt for 30 min. After the incubation, the suspension was centrifuged again at 31,000× g for 20 min at 4 °C. The final pellet was resuspended in 5–6 volumes of buffer and stored at −80 °C in 1.5 mL portions containing about 2 mg of protein/mL.
The stock solution of the respective test compound (10 mM in DMSO) was diluted with the assay buffer to obtain the required test solutions for the assay. All binding experiments were carried out in duplicates in 96-well multiplates. The concentrations given are the final concentrations in the assay. The assays were performed with the radioligand [^3H]-DTG (specific activity 50 Ci/mmol; ARC, St. Louis, MO, USA). The thawed membrane preparation of rat liver (about 100 µg of protein) was incubated with various concentrations of the test compound, 3 nM [^3H]-DTG, and a buffer containing (+)-pentazocine (500 nM (+)-pentazocine in 50 mM TRIS, pH 8.0) at rt. The non-specific binding was determined with 10 μM non-labeled DTG. The Kd value of [^3H]-DTG is 17.9 nM [43].
Generally, the assays were performed by adding 50 µL of the respective assay buffer and 50 µL of the test compound solution in various concentrations (10^−5, 10^−6, 10^−7, 10^−8, 10^−9, and 10^−10 mol/L), 50 µL of the corresponding radioligand solution, and 50 µL of the respective receptor preparation into each well of the multiplate (total volume 200 µL). The receptor preparation was added last. During the incubation, the multiplates were shaken at a speed of 500−600 rpm at rt. The assays were terminated after 120 min by rapid filtration using the harvester (MicroBeta FilterMate 96; PerkinElmer LAS, Rodgau, Germany) equipped with filtermats presoaked in 0.5% aqueous polyethylenimine solution for 2 h at rt before use. During the filtration, each well was washed five times with 300 µL of water. Subsequently, the filtermats were dried at 95 °C. The solid scintillator (Meltilex; PerkinElmer LAS, Rodgau, Germany) was melted on the dried filtermats at a temperature of 95 °C for 5 min. After solidifying the scintillator at rt, the trapped radioactivity in the filtermats was measured with the scintillation analyzer (MicroBeta Trilux; PerkinElmer LAS, Rodgau, Germany). Each position on the filtermat corresponds to one well of the multiplate and was measured for 5 min with the [^3H]-counting protocol. The overall counting efficiency was 20%. The IC50 values were calculated with the program GraphPad Prism® 3.0 (GraphPad Software, San Diego, CA, USA) by nonlinear regression analysis. Subsequently, the IC50 values were transformed into Ki values using the equation of Cheng and Prusoff. The Ki values are given as the mean value ± SEM from three independent experiments.

human MAO A = conditions: cited from earlier work
human σ1R = biological target: T2, human σ1R (Homo sapiens, UniProt Q99720); experiment: hσ1R competitive radioligand binding assay; conditions: for Selectivity Index of Rat σ2R/Human σ1R: Ki rat σ2R/Ki hσ1R
T2 construct: expressed in transfected cells; host or cells: HEK293 (provided by Olivier Soriani, Université de Nice Sophia-Antipolis)
T2 sequence (Q99720 whole entry): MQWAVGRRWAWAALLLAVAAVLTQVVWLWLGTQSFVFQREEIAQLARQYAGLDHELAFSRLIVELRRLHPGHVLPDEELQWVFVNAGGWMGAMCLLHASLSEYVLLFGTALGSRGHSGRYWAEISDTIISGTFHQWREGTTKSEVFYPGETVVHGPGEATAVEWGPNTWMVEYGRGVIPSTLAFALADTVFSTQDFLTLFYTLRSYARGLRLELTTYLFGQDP
Experimental: The hσ1R competitive binding assay was performed as previously reported. In brief, radioligand competition experiments were performed using preparations from HEK293 cells stably transfected with human σ1R cells (provided by Olivier Soriani, Université de Nice Sophia-Antipolis, Nice, France). The binding of the σ1R specific radioligand (+)-[^3H]pentazocine (1.051 TBq/mmol; PerkinElmer LAS GmbH, Rodgay, Germany) was measured at equilibrium in the presence of the test compounds at different concentrations (10 mM stock solutions in DMSO; final concentrations 10^−5–10^−11 M, 0.1 % DMSO) in TRIS buffer at pH 7.4 (50 mM TRIS-HCl, 120 mM NaCl, 5 mM KCl, 2 mM CaCl2, 1 mM MgCl2). Total binding was measured without the addition of a competitor, and non-specific binding was measured with 10 µM haloperidol as the competitor. The vials were incubated at room temperature (rt) (~21 °C) at 300 rpm. The incubation was terminated after 60 min by vacuum filtration using Whatman® GF/B glass-fiber filtermats (#FPD-100, Brandel Inc., Gaithersburg, MD, USA), soaked with freshly prepared 0.3% polyethyleneimine, using a 48-well harvester (Brandel Inc., Gaithersburg, MD, USA). Filters were washed four times with cold buffer (50 mM TRIS-HCl, pH 7.4 at 4 °C) and placed in scintillation vials. In total, 3 mL of a liquid scintillation cocktail (Ultima Gold TM; PerkinElmer, Waltham, MA, USA) was filled in each vial, and the vials were shaken at rt at 375 rpm for 120 min. Filter-bound radioactivity was measured in a Hidex 600 SL liquid scintillation counter (Hidex, Turku, Finnland). By performing nonlinear regression analysis of the binding curves (GraphPad Prism 3.0, GraphPad Software, Inc., La Jolla, CA, USA), the IC50 values were obtained, and the equilibrium inhibition constants Ki were calculated according to the Cheng–Prusoff equation [36], using the in-house determined equilibrium dissociation constant KD of 33 nM (+)-[^3H]pentazocine. Each test compound was measured in 2–3 independent experiments, each performed in triplicate.

gpσ1R = gpσ1R (Cavia porcellus, UniProt Q60492); experiment: gpσ1R affinity; type: binding
Sequence of gpσ1R (Q60492 whole entry): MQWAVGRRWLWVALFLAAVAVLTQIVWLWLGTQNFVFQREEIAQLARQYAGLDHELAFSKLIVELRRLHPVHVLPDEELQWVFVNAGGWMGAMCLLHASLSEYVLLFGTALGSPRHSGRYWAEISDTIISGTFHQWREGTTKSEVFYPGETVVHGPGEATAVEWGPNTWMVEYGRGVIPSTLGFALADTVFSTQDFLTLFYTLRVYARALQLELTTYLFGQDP

[1] = rat liver membrane preparations, radioligand [3H]ditolylguanidine, (+)-pentazocine to mask σ1R, mean ± SEM, read-out: Ki Rat σ2R
[2] = membrane preparations of HEK-293 cells stably transfected with hσ1R, radioligand (+)-[3H]pentazocine, two experiments: mean (individual values), three or more: mean ± SD, read-out: Ki Human σ1R

| Structure (SMILES) | IC50 (EeAChE) | IC50 (eqBuChE; eqBuChE) | IC50 MAO B (human MAO B) | Ki (rat σ2R) | IC50 MAO A (human MAO A) | Ki (human σ1R) | Selectivity Index of Rat σ2R/Human σ1R (human σ1R) | IC50 (human MAO A) | Ki (rat σ2R; [1]) | Ki (human σ1R; [2]) | fold more affine for rat σ2R than for hσ1R (rat σ2R; Ki hσ1R vs Ki rat σ2R) | IC50 BuChE (eqBuChE; eqBuChE) | Ki (gpσ1R) | IC50 (eqBuChE; as given in the text) | fold higher affinity for hσ1R than the standards NE-100 and PB2 (human σ1R; compared with the standards) |
| --- | --- | --- | --- | --- | --- | --- | --- | --- | --- | --- | --- | --- | --- | --- | --- |
| C#CCNc1nc(NCCCC2CCN(Cc3ccccc3)CC2)c(C#N)cc1C#N [Compound 3] | 4.7 ± 0.5 nM | 2030 ± 370 nM | n.i. | 37 ± 5 nM | n.i. | ~3 nM and 2.97 nM | 13 | – | – | – | – | – | – | – | – |
| C#CCN(C)c1nc(NCCCC2CCN(Cc3ccccc3)CC2)c(C#N)cc1C#N [Compound 6] | 6.2 ± 1.4 nM | 1120 ± 160 nM | n.i. | 129 ± 26 nM | – | ~3 nM and 3.05 nM | 42 | 6110 ± 1400 nM | – | – | – | – | – | – | – |
| C#CCNc1nc(NCCCCC2CCN(Cc3ccccc3)CC2)c(C#N)c(-c2ccccc2)c1C#N [Compound 10] | 1.7 ± 0.3 nM | 840 ± 100 nM | n.i. | – | n.i. | – | 2.5 | – | 39 nM | 15.4 nM | – | – | – | – | – |
| C#CCN(C)c1nc(NCC2CCN(Cc3ccccc3)CC2)c(C#N)c(-c2ccccc2)c1C#N [Compound 11, 2-{[(1-benzylpiperidin-4-yl)methyl]amino}-6-[methyl(prop-2-yn-1-yl)amino]-4-phenylpyridine-3,5-dicarbonitrile] | 270 ± 52 nM | 5000 ± 700 nM | n.i. | 55 nM | n.i. | 119 nM | 0.46 | – | – | – | 2 fold | – | – | – | – |
| C#CCNc1nc(NC2CCN(Cc3ccccc3)CC2)c(C#N)c(-c2ccccc2)c1C#N [Compound 8] | 4000 ± 100 nM | – | n.i. | 141 nM | – | 27.3 nM | 5.2 | 25 ± 1 nM | – | – | – | n.i. | – | – | – |
| C#CCNc1nc(NCCCCC2CCN(Cc3ccccc3)CC2)c(C#N)cc1C#N [Compound 4] | 1.3 ± 0.3 nM | 530 ± 60 nM | n.i. | – | n.i. | – | 41 | – | 163 ± 50 nM | 3.97 ± 0.66 nM | – | – | – | – | – |
| C#CCN(C)c1nc(NCCCCC2CCN(Cc3ccccc3)CC2)c(C#N)cc1C#N [Compound 7] | 1.1 ± 0.3 nM | 600 ± 80 nM | n.i. | – | – | – | – | – | 288 nM | ~3 nM and 3.09 nM | – | – | – | – | – |
| C#CCN(C)c1nc(NCCCC2CCN(Cc3ccccc3)CC2)c(C#N)c(-c2ccccc2)c1C#N [Compound 12] | 14 ± 1 nM | 230 ± 30 nM | n.i. | 393 nM | n.i. | 10.9 ± 1.9 nM | 36 | – | – | – | – | – | – | – | – |
| C#CCNc1nc(NCCC2CCN(Cc3ccccc3)CC2)c(C#N)cc1C#N [Compound 2] | 16 ± 2 nM | – | n.i. | 42 ± 8 nM | n.i. | 7.57 ± 0.59 nM | 5.6 | – | – | – | – | n.i. | – | – | – |
| C#CCNc1nc(NCCCC2CCN(Cc3ccccc3)CC2)c(C#N)c(-c2ccccc2)c1C#N [Compound 9] | 19 ± 5 nM | – | n.i. | 104 ± 22 nM | n.i. | 7.45 ± 4.32 nM | 14 | – | – | – | – | n.i. | – | – | – |
| C#CCN(C)c1nc(NCCC2CCN(Cc3ccccc3)CC2)c(C#N)cc1C#N [Compound 5, 2-{[2-(1-benzylpiperidin-4-yl)ethyl]amino}-6-[methyl(prop-2-yn-1-yl)amino]pyridine-3,5-dicarbonitrile] | 13 nM | – | n.i. | 389 nM | n.i. | 1.45 ± 0.43 nM | 270 | – | – | – | – | – | 2.9 nM | 3100 nM | ~1.3 fold |
| C#CCNc1nc(NC2CCN(Cc3ccccc3)CC2)c(C#N)cc1C#N [Compound 1] | 530 ± 70 nM | – | n.i. | 173 nM | n.i. | 29.2 nM | 5.9 | – | – | – | – | n.i. | – | – | – |
